Assay results as given in patent US20160176894A1, “TAXANE AND ABEO-TAXANE ANALOGS” (Arbor Therapeutics, LLC, priority 2013, published 2016).

Assays:
[1] = tested on: MES-SA/Dx5 doxorubicin-resistant subline; assay: MTT-based cytotoxicity assay, MES-SA/Dx5; assay type: cell-based, human; conditions: for Degree of resistance (MES-SA/Dx5): IC50 of the resistant line divided by IC50 of sensitive MES-SA cells; for IC50: MTT, multidrug resistant subline (MDR1/P-glycoprotein)
From the text: (§1) These lines included a uterine sarcoma line, MES-SA. (Harker, W. G.; MacKintosh, F. R.; Sikic, B. I., Development and characterization of a human sarcoma cell line, MES-SA, sensitive to multiple drugs. Cancer Res. 1983, 43, 4943-4950), and its doxorubicin-resistant subline, MES-SA/DxS. (Harker, W. G.; Sikic, B. I., Multidrug (pleiotropic) resistance in doxorubicin-selected variants of the human sarcoma cell line MES-SA. Cancer Res. 1985, 45, 4091-4096). […] However, resistance to bleomycin, cisplatin, carmustine, 5-fluorouracil or methotrexate is not observed. MES-SA/Dx5 cells express high levels of ABCB 1 (MDR1) mRNA and its gene product, the P-glycoprotein. MES-SA and MES-SA/Dx5 were purchased from the American Type Culture Collection (ATCC, Manassas, Va.).

CCRF-CEM (CEM) cells = assay: MTT-based cytotoxicity assay, CEM; assay type: cell-based, human; conditions: sensitive parental line
From the text: as §1
(§2) The second set of cells tested, CCRF-CEM or simply CEM, were derived from the blood of a patient with acute lymphobiastic leukemia. (Foley, G. E.; Lazarus, H.; Farber, S.; Uzman, B. G.; Boone, B. A.; McCarthy, R. E., Continuous Culture of Human Lymphoblasts from Peripheral Blood of a Child with Acute Leukemia. Cancer 1965, 18, 522-529). The subline CEM/VLB100 was developed to be resistant to up to vinblastine at 100 ng/ml. (Beck, W. T.; Mueller, T. J.; Tanzer, L. R., Altered surface membrane glycoproteins in Vinca alkaloid-resistant human leukemic lymphoblasts. Cancer Res. 1979, 39, 2070-2076). Drug resistance is achieved by overexpression of the MDR1 gene. Resistance in the CEM subline designated CEM/VM-1-5, however, is “atypical.” (Danks, M. K.; Yalowich, J. C.; Beck, W. T., Atypical multiple drug resistance in a human leukemic cell line selected for resistance to teniposide (VM-26). Cancer Res. 1987, 47, 1297-1301). The classes of drugs included in the “classic” multiple drug resistance phenotype are Vinca alkaloids, anthracyclines, epipodophyllotoxins and antibiotics. However, CEM/VM-1-5 cells retain sensitivity to the Vinca alkaloids despite resistance and cross-resistance to etoposide, anthracyclines and mitoxantrone. (Danks, M. K.; Schmidt, C. A.; Cirtain, M. C.; Suttle, D. P.; Beck, W. T., Altered catalytic activity of and DNA cleavage by DNA topoisomerase II from human leukemic cells selected for resistance to VM-26. Biochemistry 1988, 27, 8861-8869). Resistance in CEM/VM-1-5 cells is effected by over expression of the ABCC1 (MRP1) gene. CEM, CEM/VLB100 and CEM/VM-1-5 cells were obtained from Dr. WT Beck, University of Illinois at Chicago.

[2] = tested on: MES-SA uterine sarcoma line; assay: MTT-based cytotoxicity assay, MES-SA; assay type: cell-based, human; conditions: sensitive parental line
From the text: as §1

CEM/VLB100 cells = assay: MTT-based cytotoxicity assay, CEM/VLB100; assay type: cell-based, human; conditions: for Degree of resistance (CEM/VLB100): IC50 of the resistant line divided by IC50 of sensitive CEM cells; for IC50: MTT, vinblastine-resistant subline (MDR1)
Protocol: as §2

CEM/VM-1-5 cells = assay: MTT-based cytotoxicity assay, CEM/VM-1-5; assay type: cell-based, human; conditions: for Degree of resistance (CEM/VM-1-5): IC50 of the resistant line divided by IC50 of sensitive CEM cells; for IC50: MTT, atypical MDR subline (ABCC1/MRP1)
Protocol: as §2

tubulin = tubulin protein assembly assay; assay type: biochemical

| Compound | Degree of resistance (MES-SA/Dx5) [1] | IC50 [1] [nM] | IC50 (CCRF-CEM (CEM) cells) [nM] | IC50 [2] [nM] | Degree of resistance (CEM/VLB100) (CEM/VLB100 cells) | IC50 (CEM/VLB100 cells) [nM] | Degree of resistance (CEM/VM-1-5) (CEM/VM-1-5 cells) | IC50 (CEM/VM-1-5 cells) [nM] | ED50/ED50 (Paclitaxel) (tubulin; ratio to paclitaxel) | EC50 (tubulin; tubulin assembly, read-out: ED50 (the source's name)) [nM] |
| --- | --- | --- | --- | --- | --- | --- | --- | --- | --- | --- |
| C=CC1OC2CC3OCC3(OC(C)=O)C3C(OC(=O)c4ccccc4)C4(O)CC(OC(=O)C(O)C(CC(C)C)NC(=O)OC(C)(C)C)C(C)=C(C(OC(C)=O)C(O1)C23C)C4(C)C (mixture of isomers) [10-αTX (14a.2)] | 1.1 ± 0.3 | 34 ± 24 | 14 ± 5 | 30 ± 14 | 3 ± 0.6 | 43 ± 23 | – | – | – | – |
| Doxorubicin | 49 | 97 | 14 | 2 | 150 | 2100 | 219 | 3060 | – | – |
| C=C[C@H]1O[C@H]2C[C@H]3OC[C@@]3(OC(C)=O)[C@H]3[C@H](OC(=O)c4ccccc4)[C@]4(C(C)(C)O)C[C@H](OC(=O)[C@H](O)[C@H](CC(C)C)NC(=O)OC(C)(C)C)C(C)=C4[C@@H](OC(C)=O)[C@H](O1)[C@]23C [10-βAT (15b.2)] | 0.75 ± 0.07 | 328 ± 173 | 112 ± 60 | 432 ± 261 | 4 ± 0.3 | 453 ± 293 | 0.9 ± 0.5 | 77 ± 6 | – | – |
